Results: patent publication US11365188B2, “JAK inhibitors” (priority 2018, dated 2022)

Legend:
Format in all cases: biochemical
JAK1 = JAK1 (Homo sapiens, UniProt P23458); assay: JAK Kinase Assay (JAK1, Caliper EZ Reader, fluoresceinated peptide); settings: ATP 76.5 μM; JAK1 10 nM; 120 minutes at room temperature; read-out: JAK1 inhibition
JAK3 = biological target: T1, JAK3 (Homo sapiens, UniProt P52333); assay: JAK3 Assay (Caliper EZ Reader, fluoresceinated peptide); settings: ATP 3.5 μM; JAK3 0.5 nM; 30 minutes at room temperature; read-out: JAK3 inhibition
T1 sequence (P52333 1-1124): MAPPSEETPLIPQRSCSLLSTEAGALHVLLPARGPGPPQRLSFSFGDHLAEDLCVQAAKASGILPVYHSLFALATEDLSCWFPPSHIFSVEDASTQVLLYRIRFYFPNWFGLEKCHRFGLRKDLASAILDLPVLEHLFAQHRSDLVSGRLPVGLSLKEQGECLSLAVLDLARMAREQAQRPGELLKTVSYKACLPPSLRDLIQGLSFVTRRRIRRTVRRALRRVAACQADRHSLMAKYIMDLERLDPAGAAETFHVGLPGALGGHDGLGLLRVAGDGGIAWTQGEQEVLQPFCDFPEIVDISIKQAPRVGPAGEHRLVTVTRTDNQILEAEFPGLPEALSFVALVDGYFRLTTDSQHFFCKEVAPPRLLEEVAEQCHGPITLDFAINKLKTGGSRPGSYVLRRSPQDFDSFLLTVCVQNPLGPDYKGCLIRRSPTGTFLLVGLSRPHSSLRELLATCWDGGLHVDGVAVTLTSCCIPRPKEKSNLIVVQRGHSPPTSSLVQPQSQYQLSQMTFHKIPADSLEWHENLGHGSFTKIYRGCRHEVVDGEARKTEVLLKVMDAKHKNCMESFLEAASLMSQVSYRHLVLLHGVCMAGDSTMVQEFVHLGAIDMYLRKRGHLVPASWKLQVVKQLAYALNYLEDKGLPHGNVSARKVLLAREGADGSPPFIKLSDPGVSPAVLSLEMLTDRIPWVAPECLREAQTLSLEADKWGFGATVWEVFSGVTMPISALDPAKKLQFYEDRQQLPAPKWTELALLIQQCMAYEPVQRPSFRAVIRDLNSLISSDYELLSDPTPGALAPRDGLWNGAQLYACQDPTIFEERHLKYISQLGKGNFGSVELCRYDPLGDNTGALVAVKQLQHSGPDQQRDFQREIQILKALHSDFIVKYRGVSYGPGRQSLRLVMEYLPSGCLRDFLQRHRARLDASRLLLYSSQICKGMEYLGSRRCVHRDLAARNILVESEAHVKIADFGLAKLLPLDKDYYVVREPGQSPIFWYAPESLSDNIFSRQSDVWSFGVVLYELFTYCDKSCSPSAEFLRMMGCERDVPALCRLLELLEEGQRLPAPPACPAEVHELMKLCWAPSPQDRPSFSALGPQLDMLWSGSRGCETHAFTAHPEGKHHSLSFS
Experimental: JAK3 Assay 384-well plates in the left foot butoxy measured progress. The final assay volume was 25 μL, 250 nL 100× compounds, 10 μL enzyme mix and 15 μL substrate mix (fluoresceinated peptide and ATP) in assay buffer (50 mM HEPES (pH 7.5), 10 mM MgCl2, 0.01% TritonX-100, 0.01% Brij35, 0.5 mM EGTA and 2 mM DTT) prepared as test compound. By mixing the JAK3 with substrates and test compounds to start the reaction. The reaction mixture was incubated for 30 minutes at room temperature, then added 30 μL stop buffer for each sample to terminate the reaction with 50 mM EDTA. After termination of the kinase reaction, the proportion of phosphorylated product was determined as a fraction of total peptide substrate using Caliper EZ Reader II. Inhibition data were calculated by comparison with 100% of the reaction mixture without enzyme inhibition and vehicle-only reaction mixture billion % inhibition compared. The final concentration of reagents in the assays is: ATP, 3.5 μM; JAK3 fluorescent peptide (5-FAM-EEPLYWSFPAKKK-CONH2), 3 μM; JAK3, 0.5 nM; and DMSO, 1%. Dose response curve were generated to determine the concentration required for IC50 of JAK3 activity.

JAK2 = JAK2 (Homo sapiens, UniProt O60674); assay: JAK2 Assay (Caliper EZ Reader, fluoresceinated peptide); settings: ATP 11.4 μM; JAK2 0.25 nM; 15 minutes at room temperature; read-out: JAK2 inhibition
Sequence of JAK2 (O60674 whole entry, species assumed): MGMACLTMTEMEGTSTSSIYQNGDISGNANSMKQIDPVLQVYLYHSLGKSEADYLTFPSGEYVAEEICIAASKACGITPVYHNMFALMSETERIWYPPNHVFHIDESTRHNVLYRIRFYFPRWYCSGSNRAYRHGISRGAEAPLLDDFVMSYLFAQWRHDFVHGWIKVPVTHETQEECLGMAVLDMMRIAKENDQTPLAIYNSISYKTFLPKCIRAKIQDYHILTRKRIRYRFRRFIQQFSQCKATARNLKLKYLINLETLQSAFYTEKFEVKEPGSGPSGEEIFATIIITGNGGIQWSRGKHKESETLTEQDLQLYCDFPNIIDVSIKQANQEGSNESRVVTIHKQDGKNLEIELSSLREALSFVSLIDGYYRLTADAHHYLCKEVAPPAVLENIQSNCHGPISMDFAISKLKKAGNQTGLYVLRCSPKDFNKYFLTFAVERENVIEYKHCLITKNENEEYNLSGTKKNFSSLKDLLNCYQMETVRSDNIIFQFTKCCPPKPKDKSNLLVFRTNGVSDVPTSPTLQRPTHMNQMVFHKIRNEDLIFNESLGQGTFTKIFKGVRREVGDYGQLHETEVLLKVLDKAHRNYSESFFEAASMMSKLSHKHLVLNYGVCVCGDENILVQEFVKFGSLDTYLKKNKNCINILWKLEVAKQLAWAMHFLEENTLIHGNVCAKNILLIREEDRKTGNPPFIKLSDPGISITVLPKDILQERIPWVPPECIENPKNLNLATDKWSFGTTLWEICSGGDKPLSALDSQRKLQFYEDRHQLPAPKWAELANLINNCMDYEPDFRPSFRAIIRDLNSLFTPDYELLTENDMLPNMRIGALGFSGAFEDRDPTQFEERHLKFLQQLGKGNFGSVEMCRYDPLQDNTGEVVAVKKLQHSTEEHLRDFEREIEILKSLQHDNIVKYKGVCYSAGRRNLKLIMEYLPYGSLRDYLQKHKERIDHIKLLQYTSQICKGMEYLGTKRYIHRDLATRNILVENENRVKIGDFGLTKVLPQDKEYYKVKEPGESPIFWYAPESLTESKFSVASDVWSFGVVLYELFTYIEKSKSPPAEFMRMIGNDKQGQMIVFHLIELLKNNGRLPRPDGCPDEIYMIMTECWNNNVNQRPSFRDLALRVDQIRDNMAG
Experimental: JAK2 Assay 384-well plates in the left foot butoxy measured progress. The final assay volume was 25 μL, 250 nL 100× compounds, 10 μL enzyme mix and 15 μL substrate mix (fluoresceinated peptide and ATP) in assay buffer (50 mM HEPES (pH 7.5), 10 mM MgCl2, 0.01% TritonX-100, 0.01% Brij35, 0.5 mM EGTA and 2 mM DTT) prepared as test compound By mixing the JAK2 with substrates and test compounds to start the reaction. The reaction mixture was incubated for 15 minutes at room temperature, then added 30 μL stop buffer for each sample to terminate the reaction with 50 mM EDTA. After termination of the kinase reaction, the proportion of phosphorylated product was determined as a fraction of total peptide substrate using Caliper EZ Reader 1 Inhibition data were calculated by comparison with 100% of the reaction mixture without enzyme inhibition and vehicle-only reaction mixture billion % inhibition compared. The final concentration of reagents in the assays is: ATP, 11.4 μM; JAK2 fluorescent peptide (5-FAM-EEPLYWSFPAKKK-CONH2), 3 μM; JAK2, 0.25 nM; and DMSO, 1%. Dose response curve were generated to determine the concentration required for IC50 of JAK2 activity.

Sequence of JAK1 (P23458 whole entry, species assumed): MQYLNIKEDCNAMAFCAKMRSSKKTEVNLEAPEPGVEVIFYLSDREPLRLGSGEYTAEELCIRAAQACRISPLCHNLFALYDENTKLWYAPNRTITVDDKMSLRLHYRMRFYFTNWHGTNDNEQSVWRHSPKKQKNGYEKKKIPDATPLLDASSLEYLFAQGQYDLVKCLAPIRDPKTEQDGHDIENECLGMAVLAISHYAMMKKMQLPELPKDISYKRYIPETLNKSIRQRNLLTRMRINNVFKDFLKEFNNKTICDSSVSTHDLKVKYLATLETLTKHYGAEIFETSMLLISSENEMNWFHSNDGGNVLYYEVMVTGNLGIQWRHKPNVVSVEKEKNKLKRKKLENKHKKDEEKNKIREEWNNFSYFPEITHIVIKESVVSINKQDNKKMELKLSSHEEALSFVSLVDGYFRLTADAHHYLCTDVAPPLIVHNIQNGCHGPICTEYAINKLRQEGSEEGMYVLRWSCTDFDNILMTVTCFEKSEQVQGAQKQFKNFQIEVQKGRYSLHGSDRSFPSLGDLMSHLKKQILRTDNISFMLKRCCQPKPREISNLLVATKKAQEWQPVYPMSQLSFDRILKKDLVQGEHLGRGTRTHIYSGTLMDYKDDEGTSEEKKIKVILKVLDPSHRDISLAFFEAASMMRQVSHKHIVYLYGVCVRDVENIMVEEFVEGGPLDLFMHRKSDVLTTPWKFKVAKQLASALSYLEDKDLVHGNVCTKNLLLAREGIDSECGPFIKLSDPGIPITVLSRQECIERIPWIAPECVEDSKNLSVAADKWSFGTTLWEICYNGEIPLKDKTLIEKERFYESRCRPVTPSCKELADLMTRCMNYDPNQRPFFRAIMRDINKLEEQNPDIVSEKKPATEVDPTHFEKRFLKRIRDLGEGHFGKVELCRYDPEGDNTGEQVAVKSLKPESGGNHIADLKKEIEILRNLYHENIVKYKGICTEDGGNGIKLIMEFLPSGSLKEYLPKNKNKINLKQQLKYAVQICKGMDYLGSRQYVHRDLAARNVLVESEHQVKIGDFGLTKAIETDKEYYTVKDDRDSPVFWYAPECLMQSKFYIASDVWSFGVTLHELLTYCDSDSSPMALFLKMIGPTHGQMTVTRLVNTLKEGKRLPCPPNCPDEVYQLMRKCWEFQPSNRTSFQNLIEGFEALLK

SMILES	IC50 (JAK1) [nM]	IC50 (JAK3) [nM]	IC50 (JAK2) [nM]
CN(c1ncnc2[nH]ccc12)C1CC2(C1)CN(C(=O)c1cccc(OC(F)(F)F)c1)C2 [Compound 17, (6-(methyl(7H-pyrrolo[2,3-d]pyrimidin-4-yl)amino)-2-azaspiro[3.3]heptan-2-yl)(3-(trifluoromethoxy)phenyl)methanone]	100 to 1000	≥ 10000	1000 to 10000
CN(c1ncnc2[nH]ccc12)C1CC2(C1)CN(C(=O)CC#N)C2 [Compound 2, 3-(6-(methyl(7H-pyrrolo[2,3-d]pyrimidin-4-yl)amino)-2-azaspiro[3.3]heptan-2-yl)-3-oxopropanenitrile]	100 to 1000	1000 to 10000	100 to 1000
CCS(=O)(=O)N1CC2(CC(N(C)c3ncnc4[nH]ccc34)C2)C1 [Compound 6, N-(2-(ethylsulfonyl)-2-azaspiro[3.3]heptan-6-yl)-N-methyl-7H-pyrrolo[2,3-d]pyrimidin-4-amine]	100 to 1000	≥ 10000	100 to 1000
CN(c1ncnc2[nH]ccc12)C1CC2(C1)CN(C(=O)c1ccc(C#N)cc1Cl)C2 [Compound 37, 3-chloro-4-(6-(methyl(7H-pyrrolo[2,3-d]pyrimidin-4-yl)amino)-2-azaspiro[3.3]heptane-2-carbonyl)benzonitrile]	10 to 100	1000 to 10000	100 to 1000
CN(c1ncnc2[nH]ccc12)C1CC2(C1)CN(C(=O)c1cc3ccccc3s1)C2 [Compound 20, benzo[b]thiophen-2-yl(6-(methyl(7H-pyrrolo[2,3-d]pyrimidin-4-yl)amino)-2-azaspiro[3.3]heptan-2-yl)methanone]	10 to 100	1000 to 10000	1000 to 10000
CN(c1ncnc2[nH]ccc12)C1CC2(C1)CN(C(=O)CCS(C)(=O)=O)C2 [Compound 16, 1-(6-(methyl(7H-pyrrolo[2,3-d]pyrimidin-4-yl)amino)-2-azaspiro[3.3]heptan-2-yl)-3-(methylsulfonyl)propan-1-one]	100 to 1000	1000 to 10000	1000 to 10000
CC(=O)N1CC2(CC(N(C)c3ncnc4[nH]ccc34)C2)C1 [Compound 4, 1-(6-(methyl(7H-pyrrolo[2,3-d]pyrimidin-4-yl)amino)-2-azaspiro[3.3]heptan-2-yl)ethanone]	100 to 1000	≥ 10000	100 to 1000
C#Cc1ccc(C(=O)N2CC3(CC(N(C)c4ncnc5[nH]ccc45)C3)C2)c(Cl)c1 [Compound 43, (2-chloro-4-ethynylphenyl)(6-(methyl(7H-pyrrolo[2,3-d]pyrimidin-4-yl)amino)-2-azaspiro[3.3]heptan-2-yl)methanone]	≤ 10	1000 to 10000	100 to 1000
CN(c1ncnc2[nH]ccc12)C1CC2(C1)CN(C(=O)c1csc3ccccc13)C2 [Compound 22, benzo[b]thiophen-3-yl(6-(methyl(7H-pyrrolo[2,3-d]pyrimidin-4-yl)amino)-2-azaspiro[3.3]heptan-2-yl)methanone]	10 to 100	1000 to 10000	1000 to 10000
Cc1cncc(C(=O)N2CC3(CC(N(C)c4ncnc5[nH]ccc45)C3)C2)n1 [Compound 29, (6-(methyl(7H-pyrrolo[2,3-d]pyrimidin-4-yl)amino)-2-azaspiro[3.3]heptan-2-yl)(6-methylpyrazin-2-yl)methanone]	100 to 1000	≥ 10000	1000 to 10000
CN(c1ncnc2[nH]ccc12)C1CC2(C1)CN(C(=O)c1ccc(C#N)c(Cl)c1)C2 [Compound 36, 2-chloro-4-(6-(methyl(7H-pyrrolo[2,3-d]pyrimidin-4-yl)amino)-2-azaspiro[3.3]heptane-2-carbonyl)benzonitrile]	10 to 100	1000 to 10000	1000 to 10000
CN(c1ncnc2[nH]ccc12)C1CC2(C1)CN(C(=O)CO)C2 [Compound 3, 2-hydroxy-1-(6-(methyl(7H-pyrrolo[2,3-d]pyrimidin-4-yl)amino)-2-azaspiro[3.3]heptan-2-yl)ethanone]	100 to 1000	1000 to 10000	100 to 1000
CN(c1ncnc2[nH]ccc12)C1CC2(C1)CN(C(=O)c1ccc(C3CC3)cc1)C2 [Compound 39, (4-cyclopropylphenyl)(6-(methyl(7H-pyrrolo[2,3-d]pyrimidin-4-yl)amino)-2-azaspiro[3.3]heptan-2-yl)methanone]	10 to 100	1000 to 10000	100 to 1000

Continued, values first:

IC50 (JAK1) [nM]	IC50 (JAK3) [nM]	IC50 (JAK2) [nM]	SMILES
≤ 10	≥ 10000	100 to 1000	C#Cc1ccc(C(=O)N2CC3(CC(N(C)c4ncnc5[nH]ccc45)C3)C2)cc1Cl [Compound 46, (3-chloro-4-ethynylphenyl)(6-(methyl(7H-pyrrolo[2,3-d]pyrimidin-4-yl)amino)-2-azaspiro[3.3]heptan-2-yl)methanone]
100 to 1000	1000 to 10000	100 to 1000	CCC(=O)N1CCC2(CCC(N(C)c3ncnc4[nH]ccc34)CC2)CC1 [Compound 78, 1-{9-[Methyl-(7H-pyrrolo[2,3-d]pyrimidin-4-yl)-amino]-3-aza-spiro[5.5]undec-3-yl}-propan-1-one]
≤ 10	1000 to 10000	100 to 1000	C#Cc1ccc(C(=O)N2CC3(CC(N(C)c4ncnc5[nH]ccc45)C3)C2)cc1F [Compound 47, (4-ethynyl-3-fluorophenyl)(6-(methyl(7H-pyrrolo[2,3-d]pyrimidin-4-yl)amino)-2-azaspiro[3.3]heptan-2-yl)methanone]
100 to 1000	100 to 1000	100 to 1000	CN(c1ncnc2[nH]ccc12)C1CCC2(CC1)CCN(C(=O)c1cccc(C#N)c1)CC2 [Compound 102, 3-{9-[Methyl-(7H-pyrrolo[2,3-d]pyrimidin-4-yl)-amino]-3-aza-spiro[5.5]undecane-3-carbonyl}-benzonitrile]
100 to 1000	100 to 1000	100 to 1000	CN(c1ncnc2[nH]ccc12)C1CCC2(CC1)CCN(C(=O)CCC#N)CC2 [Compound 81, 4-{9-[Methyl-(7H-pyrrolo[2,3-d]pyrimidin-4-yl)-amino]-3-aza-spiro[5.5]undec-3-yl}-4-oxo-butyronitrile]
1000 to 10000	≥ 10000	1000 to 10000	CN(c1ncnc2[nH]ccc12)C1CC2(C1)CN(C(=O)c1ccc3c(c1)ncn3C)C2 [Compound 49, (6-(methyl(7H-pyrrolo[2,3-d]pyrimidin-4-yl)amino)-2-azaspiro[3.3]heptan-2-yl)(1-methyl-1H-benzo[d]imidazol-5-yl)methanone]
